# Measured values as given in PubChem BioAssay (NCI).
#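 Step 1: Grow cells in 96-well plates. Step 2: Expose to compound for 48 hours at 5 concentrations. Step 3: Interpolate endpoints linearly; if unreached, use highest concentration. GI50: concentration for 50% inhibition of growth. TGI: concentration producing complete growth inhibition.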
# Columns and labels:
# Assay in all cases: NCI tumour cell line growth inhibition, 48 h
# 786-0 renal = test system: 786-0 renal
# A498 renal = test system: A498 renal
# A549 NSCLC = test system: A549 NSCLC
# ACHN renal = test system: ACHN renal
# BT-549 breast = test system: BT-549 breast
# CAKI-1 renal = test system: CAKI-1 renal
# CCRF-CEM leukemia = test system: CCRF-CEM leukemia
# COLO 205 colon = test system: COLO 205 colon
# DU-145 prostate = test system: DU-145 prostate
# EKVX NSCLC = test system: EKVX NSCLC
# HCC-2998 colon = test system: HCC-2998 colon
# HCT-116 colon = test system: HCT-116 colon
# HCT-15 colon = test system: HCT-15 colon
# HL-60(TB) leukemia = test system: HL-60(TB) leukemia
# HOP-62 NSCLC = test system: HOP-62 NSCLC
# HOP-92 NSCLC = test system: HOP-92 NSCLC
# HS 578T breast = test system: HS 578T breast
# HT29 colon = test system: HT29 colon
# IGROV1 ovarian = test system: IGROV1 ovarian
# K-562 leukemia = test system: K-562 leukemia
# KM12 colon = test system: KM12 colon
# LOX IMVI melanoma = test system: LOX IMVI melanoma
# M14 melanoma = test system: M14 melanoma
# MALME-3M melanoma = test system: MALME-3M melanoma
# MCF7 breast = test system: MCF7 breast
# MDA-MB-231 breast = test system: MDA-MB-231 breast
# MDA-MB-435 = test system: MDA-MB-435
# MOLT-4 leukemia = test system: MOLT-4 leukemia
# NCI-H226 lung = test system: NCI-H226 lung
# NCI-H23 lung = test system: NCI-H23 lung
# NCI-H460 lung = test system: NCI-H460 lung
# NCI-H522 lung = test system: NCI-H522 lung
# NCI/ADR-RES ovarian = test system: NCI/ADR-RES ovarian
# OVCAR-3 ovarian = test system: OVCAR-3 ovarian
# OVCAR-4 ovarian = test system: OVCAR-4 ovarian
# OVCAR-5 ovarian = test system: OVCAR-5 ovarian
# OVCAR-8 ovarian = test system: OVCAR-8 ovarian
# PC-3 prostate = test system: PC-3 prostate
# RPMI-8226 leukemia = test system: RPMI-8226 leukemia
# RXF 393 renal = test system: RXF 393 renal
# SF-268 CNS = test system: SF-268 CNS
# SF-295 CNS = test system: SF-295 CNS
# SF-539 CNS = test system: SF-539 CNS
# SK-MEL-2 melanoma = test system: SK-MEL-2 melanoma
# SK-MEL-28 melanoma = test system: SK-MEL-28 melanoma
# SK-MEL-5 melanoma = test system: SK-MEL-5 melanoma
# SK-OV-3 ovarian = test system: SK-OV-3 ovarian
# SN12C renal = test system: SN12C renal
# SNB-19 CNS = test system: SNB-19 CNS
# SNB-75 CNS = test system: SNB-75 CNS
# SR leukemia = test system: SR leukemia
# SW-620 colon = test system: SW-620 colon
# T-47D breast = test system: T-47D breast
# TK-10 renal = test system: TK-10 renal
# U251 CNS = test system: U251 CNS
# UACC-257 melanoma = test system: UACC-257 melanoma
# UACC-62 melanoma = test system: UACC-62 melanoma
# UO-31 renal = test system: UO-31 renal
compound,measurement,setting,value
CC1(C)C(N(O)C(=O)Nc2ccc(Cl)cc2)N(c2ccc(Cl)cc2)C(=O)N1CC(=O)N/N=C/C=C/c1ccc([N+](=O)[O-])o1 (stereo not drawn),GI50,786-0 renal,2750 nM
same,TGI,786-0 renal,10300 nM
same,GI50,A498 renal,1730 nM
same,TGI,A498 renal,4120 nM
same,GI50,A549 NSCLC,3110 nM
same,TGI,A549 NSCLC,> 28500 nM
same,GI50,ACHN renal,3160 nM
same,TGI,ACHN renal,> 100000 nM
same,GI50,BT-549 breast,1600 nM
same,TGI,BT-549 breast,5190 nM
same,GI50,CAKI-1 renal,> 23200 nM
same,TGI,CAKI-1 renal,> 100000 nM
same,GI50,CCRF-CEM leukemia,604 nM
same,TGI,CCRF-CEM leukemia,2200 nM
same,GI50,COLO 205 colon,1330 nM
same,TGI,COLO 205 colon,2850 nM
same,GI50,DU-145 prostate,1850 nM
same,TGI,DU-145 prostate,4070 nM
same,GI50,EKVX NSCLC,3170 nM
same,TGI,EKVX NSCLC,> 83400 nM
same,GI50,HCC-2998 colon,1700 nM
same,TGI,HCC-2998 colon,3430 nM
same,GI50,HCT-116 colon,731 nM
same,TGI,HCT-116 colon,2520 nM
same,GI50,HCT-15 colon,2490 nM
same,TGI,HCT-15 colon,> 100000 nM
same,GI50,HL-60(TB) leukemia,1090 nM
same,TGI,HL-60(TB) leukemia,4000 nM
same,GI50,HOP-62 NSCLC,2760 nM
same,TGI,HOP-62 NSCLC,6200 nM
same,GI50,HOP-92 NSCLC,522 nM
same,TGI,HOP-92 NSCLC,2310 nM
same,GI50,HS 578T breast,3000 nM
same,TGI,HS 578T breast,> 84400 nM
same,GI50,HT29 colon,1920 nM
same,TGI,HT29 colon,> 22600 nM
same,GI50,IGROV1 ovarian,2460 nM
same,GI50,K-562 leukemia,1570 nM
same,TGI,K-562 leukemia,6030 nM
same,GI50,KM12 colon,1710 nM
same,TGI,KM12 colon,3760 nM
same,GI50,LOX IMVI melanoma,1560 nM
same,TGI,LOX IMVI melanoma,3040 nM
same,GI50,M14 melanoma,1880 nM
same,TGI,M14 melanoma,7080 nM
same,GI50,MALME-3M melanoma,1290 nM
same,TGI,MALME-3M melanoma,3080 nM
same,GI50,MCF7 breast,1010 nM
same,TGI,MCF7 breast,> 26700 nM
same,GI50,MDA-MB-231 breast,2040 nM
same,TGI,MDA-MB-231 breast,7570 nM
same,GI50,MDA-MB-435,2610 nM
same,TGI,MDA-MB-435,10900 nM
same,GI50,MOLT-4 leukemia,804 nM
same,TGI,MOLT-4 leukemia,4470 nM
same,GI50,NCI-H226 lung,1990 nM
same,TGI,NCI-H226 lung,4880 nM
same,GI50,NCI-H23 lung,2130 nM
same,TGI,NCI-H23 lung,5560 nM
same,GI50,NCI-H460 lung,2270 nM
same,TGI,NCI-H460 lung,6390 nM
same,GI50,NCI-H522 lung,2230 nM
same,TGI,NCI-H522 lung,> 21300 nM
same,GI50,NCI/ADR-RES ovarian,> 100000 nM
same,TGI,NCI/ADR-RES ovarian,> 100000 nM
same,GI50,OVCAR-3 ovarian,1490 nM
same,TGI,OVCAR-3 ovarian,3960 nM
same,GI50,OVCAR-4 ovarian,3870 nM
same,TGI,OVCAR-4 ovarian,> 100000 nM
same,GI50,OVCAR-5 ovarian,3810 nM
same,TGI,OVCAR-5 ovarian,14000 nM
same,GI50,OVCAR-8 ovarian,1860 nM
same,GI50,PC-3 prostate,679 nM
same,GI50,RPMI-8226 leukemia,327 nM
same,TGI,RPMI-8226 leukemia,1630 nM
same,GI50,RXF 393 renal,337 nM
same,TGI,RXF 393 renal,1640 nM
same,GI50,SF-268 CNS,3800 nM
same,TGI,SF-268 CNS,> 59000 nM
same,GI50,SF-295 CNS,2550 nM
same,TGI,SF-295 CNS,> 100000 nM
same,GI50,SF-539 CNS,1810 nM
same,TGI,SF-539 CNS,3810 nM
same,GI50,SK-MEL-2 melanoma,946 nM
same,TGI,SK-MEL-2 melanoma,4420 nM
same,GI50,SK-MEL-28 melanoma,1610 nM
same,TGI,SK-MEL-28 melanoma,3160 nM
same,GI50,SK-MEL-5 melanoma,1320 nM
same,TGI,SK-MEL-5 melanoma,2760 nM
same,GI50,SK-OV-3 ovarian,4480 nM
same,TGI,SK-OV-3 ovarian,> 100000 nM
same,GI50,SN12C renal,1730 nM
same,TGI,SN12C renal,9730 nM
same,GI50,SNB-19 CNS,2270 nM
same,TGI,SNB-19 CNS,6730 nM
same,GI50,SNB-75 CNS,1880 nM
same,TGI,SNB-75 CNS,7110 nM
same,GI50,SR leukemia,273 nM
same,TGI,SR leukemia,1950 nM
same,GI50,SW-620 colon,1310 nM
same,TGI,SW-620 colon,3520 nM
same,GI50,T-47D breast,3470 nM
same,TGI,T-47D breast,> 70100 nM
same,GI50,TK-10 renal,4060 nM
same,TGI,TK-10 renal,> 100000 nM
same,GI50,U251 CNS,1570 nM
same,TGI,U251 CNS,> 20700 nM
same,GI50,UACC-257 melanoma,1580 nM
same,TGI,UACC-257 melanoma,3520 nM
same,GI50,UACC-62 melanoma,1350 nM
same,TGI,UACC-62 melanoma,3910 nM
same,GI50,UO-31 renal,2640 nM
same,TGI,UO-31 renal,> 20800 nM
